Results: ChEMBL document CHEMBL5143575, “Anti-Lea monoclonal antibody SPM 522 recognizes an extended Lea epitope” (Bioorg Med Chem, 2022)

Key:
[1] = species on record: Mus musculus; assay: Inhibition of (Le(a)Le(x))14-BSA conjugate binding to mouse Anti-Le(a) monoclonal antibody SPM 522 assessed as change in free energy preincubated with mAb for 1 hr followed by incubation with immobilized antigen BSA-conjugate for 3 hrs by competitive ELISA relative to control; conditions: time 4.0 hrs
[2] = Inhibition of (Le(a)Le(x))14-BSA conjugate binding to mouse Anti-Le(a) monoclonal antibody SPM 522 preincubated with mAb for 1 hr followed by incubation with immobilized antigen BSA-conjugate for 3 hrs by competitive ELISA

deltaG [1] [kcal/mol] | IC50 [2] [µM] | Structure (SMILES)
0.5 | 7020 | CO[C@@H]1O[C@H](CO)[C@@H](O[C@@H]2O[C@@H](C)[C@H](O)[C@@H](O)[C@H]2O)[C@H](O[C@@H]2O[C@H](CO)[C@H](O)[C@H](O)[C@H]2O)[C@H]1NC(C)=O
2.4 | 1350 | CCCCCCO[C@@H]1O[C@H](CO)[C@@H](O[C@@H]2O[C@H](CO)[C@H](O)[C@H](O[C@@H]3O[C@H](CO)[C@@H](O)[C@H](O[C@@H]4O[C@H](CO)[C@H](O)[C@H](O)[C@H]4O)[C@H]3NC(C)=O)[C@H]2O)[C@H](O[C@@H]2O[C@@H](C)[C@@H](O)[C@@H](O)[C@@H]2O)[C@H]1NC(C)=O (stereo in doubt)
2.3 | 1200 | CCCCCCO[C@@H]1O[C@H](CO)[C@@H](O[C@@H]2O[C@H](CO)[C@H](O)[C@H](O[C@@H]3O[C@H](CO)[C@@H](O)[C@H](O[C@@H]4O[C@H](CO)[C@H](O)[C@H](O)[C@H]4O)[C@H]3NC(C)=O)[C@H]2O)[C@H](O)[C@H]1NC(C)=O
0 | 23 | CCCCCCO[C@@H]1O[C@H](CO)[C@@H](O[C@@H]2O[C@H](CO)[C@H](O)[C@H](O[C@@H]3O[C@H](CO)[C@@H](O[C@@H]4O[C@@H](C)[C@@H](O)[C@@H](O)[C@@H]4O)[C@H](O[C@@H]4O[C@H](CO)[C@H](O)[C@H](O)[C@H]4O)[C@H]3NC(C)=O)[C@H]2O)[C@H](O[C@@H]2O[C@@H](C)[C@@H](O)[C@@H](O)[C@@H]2O)[C@H]1NC(C)=O
1.8 | 538 | CO[C@@H]1O[C@H](CO)[C@H](O)[C@H](O[C@@H]2O[C@H](CO)[C@@H](O)[C@H](O[C@@H]3O[C@H](CO)[C@H](O)[C@H](O)[C@H]3O)[C@H]2NC(C)=O)[C@H]1O
0 | 3090 | CO[C@@H]1O[C@H](CO)[C@@H](O[C@@H]2O[C@@H](C)[C@@H](O)[C@@H](O)[C@@H]2O)[C@H](O[C@@H]2O[C@H](CO)[C@H](O)[C@H](O)[C@H]2O)[C@H]1NC(C)=O
